How the values were obtained:
[1] = d3-Creatine and d3-creatinine concentration in CrT KO mice brain after IV bolus dose (FIGS. 3 and 4, Table 6); assay type: in vivo; settings: CrT KO mice, 10 mg/kg IV, FIG. 4
Protocol: The brain concentrations of d3-creatine and d3-creatinine was measured in CrT KO mice following 10 mg/kg single dose IV bolus dose of compound 14 and 15 (FIGS. 3 and 4). As shown by FIG. 3, brain d3-creatine concentration was higher following administration of compound 15 compared to compound 14. […] Without bound to any theory, the macrocyclic compound 15 prodrug reduces d3-creatine cyclization to d3-creatinine when compared to linear compound 14 prodrug.
The concentration of d3-creatine in CrT KO mice brain were also measured for other compounds disclosed in the present application as shown in Table 6. The concentrations of d3-creatine, d3-creatinine and creatine prodrugs are measured by LC-MS/MS. The brain sample is homogenized with 4× (weight to volume) of KPI 100 mM buffer containing anti-proteases and anti-phosphatases (if needed). 50 μl of brain homogenate is then de-proteinized using 4× volume/volume of a solution containing 80% acetonitrile and 20% water with bucetin, d5-Cr (internal standard). The plate is then spun at 4000 rpm, 10 minutes, 4° C. and samples are transferred to a new plate for bioanalysis. Each analyte in each sample was quantitated against a curve in matching biomatrix using an authentic standard.

[2] = Chemical stability in simulated gastric fluid (SGF) without pepsin; assay type: physicochemical; settings: 50 μM prodrug
Procedure, shortened: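 Incubations used 50 μM compound at 37 °C in phosphate buffered saline, fasted simulated intestinal fluid without pancreatin, or fasted simulated gastric fluid without pepsin.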

[3] = In vivo IV dosing in CrT KO mice: prodrug, d3-Cr and d3-Crn in brain (Table 5); settings: IV 10 mg/kg, CrT KO mouse brain; BQL prodrug = 41.2 ng/mL
Procedure, shortened: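 CrT KO mice received prodrugs by IV injection at 10, 15 or 25 mg/kg. Brains were collected, flash frozen and homogenized in 100 mM KPI buffer with anti-proteases. Prodrug, d3-Cr and d3-Crn were quantified by LC-MS/MS and expressed as brain concentration (macrocycles) or AUC over time (linear prodrugs).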

[4] = Repeat dosing study, d3-creatine levels in non-human primate (NHP) brain (FIG. 2, Table 7); assay type: in vivo; settings: 7 infusions q.d., all brain regions tested
Protocol: FIG. 2 is a graph of the data from a multi-dose study comparing d3-creatine and d3-creatinine levels in the brain of non-human primates, measured after a total of 7 infusions of compound 14 administered q.d. (once daily). Cr=d3-creatine; CRN=d3-creatinine.
Non-human primate (NHP) brains were dosed with Compound 8 (120 mg/kg) and Compound 14 (18 mg/kg) over a seven day period (i.v. infusion provide q.d.).

[5] = system: Phenocell CrT deficient neurons (iPSC-derived human neurons); assay: Creatine prodrug uptake and d3-creatine release in Phenocell CrT deficient neurons (Table 4B); assay type: cell-based; settings: 2 hours
Protocol: Human neurons were obtained by differentiation of iPSC-derived neural stem cells for 14 days. The iPSCs were obtained from Phenocell Corporation. Neurons were cultured and differentiated to Day 10 and then frozen in liquid nitrogen. Neurons were thawed and replated at 1×10^6 per well of viable cells on poly-ornithine/laminin coated plates in 2 ml medium per well. Differentiation in complete Neurol medium with 2 ng/ml FGF2 was carried out for 4 additional days with a complete medium change (90% of medium) on Day 12. Activin A (20 ng/ml final conc.) was spiked into the cultures on Day 11 and Day 13. […] In parallel, compounds were incubated in medium alone to assess chemical stability of parent prodrug and metabolites. At the end of the 2 hour incubation, supernatants were collected and frozen at −80 C. Neurons in 6 well plates were washed gently 3× with HBSS and frozen at −80° C. Cell lysates were obtained by addition of 130 μl/well 10 mM Tris pH 7.4 with complete Mini protease inhibitors and scraping of wells. Plates were kept on ice during processing. Lysates were homogenized by hand briefly with a green pestle in 1.5 ml centrifuge tubes and then vortexed at high speed for 5 seconds. Lysates were centrifuged at 13,000 g, 10 minutes, 4 C and supernatants (cytosol fraction) were transferred in a new tube. A crash solution constituted of 80% acetonitrile and 20% water with bucetin, d5-Cr (internal standard) was added at 4:1 volume to volume to 50 ul of all samples for a total volume of 250 μL. Then plate was spun at 4000 rpm, 10 minutes, […] Samples were transferred to a new plate and frozen at −80 C prior to analysis by LC-MS/MS (Table 4B).

[6] = Liver microsome stability, human; assay type: in vitro ADME; settings: liver microsomes, pH 7.4, Table 2C, read-out: Microsome Stability Human t1/2
Procedure, shortened: (§1)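 Remaining compound measured by LC/MS after acetonitrile/internal-standard quench at 0–60 min time points (0, 5, 10, 20, 30, 60). Incubations used mouse or human liver microsomes in pH 7.4 potassium phosphate/EDTA buffer with NADPH; a 60-min sample without NADPH served as control.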

[7] = Single-dose study in CrT KO mice: creatine and creatinine in plasma and brain over 8 h (FIG. 1); assay type: in vivo
Protocol: FIG. 1 is a graph of the data from a single-dose study comparing d3-creatine and d3-creatinine levels in the plasma and brain of CrT KO mice treated with compound 15 and measured over 8 h. Cr=d3-creatine; CRN=d3-creatinine.
The plasma and brain concentrations of creatine and creatinine was measured in CrT KO mice upon treatment with compound 15 (FIG. 1). […] The ratio of [creatine]Brain.[creatine]Plasma can be an useful parameter for a successful clinical development of creatine prodrugs for treating CTD and related conditions.

[8] = Liver microsome stability, mouse; assay type: in vitro ADME; settings: liver microsomes, pH 7.4, Table 2C, read-out: Microsome Stability Mouse t1/2
Procedure, shortened: as §1

SMILES | brain concentration of d3-creatinine, compound 14 versus compound 15 [1] | Chemical Stability SGF, no enzyme % T0 at 2 hours at 37 °C. ([2]; Table 2A) | AUClast prodrug in the brain [3] | d3-creatine (d3-Cr) levels in NHP brain on repeat administration (in words) [4] | Prodrug concentration in the cell cytosol ([5]; Study No. 2, 100 μM) | d3-Creatine concentration in the cell cytosol ([5]; Study No. 2, 100 μM) | Prodrug concentration in the cell cytosol ([5]; Study No. 2, 500 μM) | half-life at 10 μM [6] | Chemical Stability SGF, no enzyme % T0 at 2 hours at 37 °C. ([2]; Table 2C) | creatine levels compared to creatinine (CRN) levels [7] | brain creatine (Cr) concentration compared to plasma ([7]; measured over 8 h) | half-life at 10 μM [8]
Cl.[2H]C([2H])([2H])N(CC(=O)OCCCCCCC)C(=N)NC(=O)CCCCCC [Compound 14] | not significantly different | 80% | BQL | dramatically increases | – | – | – | – | – | – | – | –
Cl.[2H]C([2H])([2H])N1CC(=O)OCCCCCCCCCCC(=O)NC1=N [Compound 15, 5-imino-4-trideuteriomethyl-1-oxa-4,6-diazacycloheptadecane-2,7-dione Hydrochloride] | not significantly different | – | – | – | BLOQ | BLOQ | BLOQ | < 5 min | 97% | higher than creatinine (CRN) levels | higher than the concentration in plasma | < 5 min
